Publication PMC12586182 (Frontiers in Oncology, 2025)

Assays:
Test in all cases: Kinase panel profiling at 1 µmol/L (mobility shift assay, Carna)
Type in all cases: biochemical
Conditions in all cases: 1 µmol/L of BTK inhibitor
PLK2 = target: T1, PLK2 (Homo sapiens, UniProt Q9NYY3)
T1 construct: purchased Carna Biosciences

PKCθ = target: T2, PKCθ (Homo sapiens, UniProt Q04759)
T2 construct: purchased Carna Biosciences

CK2α1/β = target: T3, CK2α1/β (Homo sapiens, UniProt P68400)
T3 construct: purchased Carna Biosciences
T3 sequence (P68400 whole entry): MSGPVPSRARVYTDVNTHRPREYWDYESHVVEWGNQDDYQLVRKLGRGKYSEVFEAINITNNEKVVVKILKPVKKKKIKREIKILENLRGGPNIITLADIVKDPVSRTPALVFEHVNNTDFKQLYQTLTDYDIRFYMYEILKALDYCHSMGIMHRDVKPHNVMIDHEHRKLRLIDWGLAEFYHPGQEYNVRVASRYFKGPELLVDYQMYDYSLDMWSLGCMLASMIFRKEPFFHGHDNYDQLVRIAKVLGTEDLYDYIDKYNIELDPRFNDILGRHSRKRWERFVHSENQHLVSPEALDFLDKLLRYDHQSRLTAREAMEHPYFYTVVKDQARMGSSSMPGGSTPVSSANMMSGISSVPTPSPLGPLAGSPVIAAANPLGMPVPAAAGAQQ
T3 sequence (P67870 whole entry partner): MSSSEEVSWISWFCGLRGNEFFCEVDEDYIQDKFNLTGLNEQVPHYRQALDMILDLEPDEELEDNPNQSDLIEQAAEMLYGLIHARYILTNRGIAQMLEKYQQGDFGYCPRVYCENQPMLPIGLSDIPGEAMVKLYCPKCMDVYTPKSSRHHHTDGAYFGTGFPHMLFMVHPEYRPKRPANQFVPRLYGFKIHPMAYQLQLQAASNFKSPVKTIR

MAPKAPK3 = target: T4, MAPKAPK3 (Homo sapiens, UniProt Q16644)
T4 construct: purchased Carna Biosciences
T4 sequence (Q16644 whole entry): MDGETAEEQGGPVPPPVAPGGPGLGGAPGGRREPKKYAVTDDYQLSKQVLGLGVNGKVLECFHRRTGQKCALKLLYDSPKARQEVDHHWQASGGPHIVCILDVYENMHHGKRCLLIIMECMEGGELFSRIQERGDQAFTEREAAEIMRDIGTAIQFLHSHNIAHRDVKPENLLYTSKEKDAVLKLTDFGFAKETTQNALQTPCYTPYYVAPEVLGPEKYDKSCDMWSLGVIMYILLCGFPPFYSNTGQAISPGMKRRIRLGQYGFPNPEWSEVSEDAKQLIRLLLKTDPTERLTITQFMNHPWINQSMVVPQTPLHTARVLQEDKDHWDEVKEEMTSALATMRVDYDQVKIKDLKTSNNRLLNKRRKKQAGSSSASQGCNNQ

LYNa = target: T5, LYNa (Homo sapiens, UniProt P07948)
T5 construct: purchased Carna Biosciences
T5 sequence (P07948 whole entry): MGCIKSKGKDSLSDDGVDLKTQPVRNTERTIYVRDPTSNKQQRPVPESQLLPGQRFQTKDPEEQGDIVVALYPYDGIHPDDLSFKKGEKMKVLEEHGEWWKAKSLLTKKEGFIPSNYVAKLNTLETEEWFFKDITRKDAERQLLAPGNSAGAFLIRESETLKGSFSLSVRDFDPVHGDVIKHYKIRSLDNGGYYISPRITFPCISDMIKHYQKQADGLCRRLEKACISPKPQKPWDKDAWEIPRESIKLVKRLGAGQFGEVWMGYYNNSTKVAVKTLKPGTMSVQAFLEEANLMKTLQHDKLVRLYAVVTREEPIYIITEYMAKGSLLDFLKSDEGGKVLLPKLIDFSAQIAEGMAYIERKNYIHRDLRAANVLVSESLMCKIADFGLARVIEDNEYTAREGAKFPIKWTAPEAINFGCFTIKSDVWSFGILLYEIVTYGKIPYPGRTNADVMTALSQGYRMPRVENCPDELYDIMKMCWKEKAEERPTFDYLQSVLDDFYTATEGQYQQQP

MST2 = target: T6, MST2 (Homo sapiens, UniProt Q13188)
T6 construct: purchased Carna Biosciences
T6 sequence (Q13188 1-491): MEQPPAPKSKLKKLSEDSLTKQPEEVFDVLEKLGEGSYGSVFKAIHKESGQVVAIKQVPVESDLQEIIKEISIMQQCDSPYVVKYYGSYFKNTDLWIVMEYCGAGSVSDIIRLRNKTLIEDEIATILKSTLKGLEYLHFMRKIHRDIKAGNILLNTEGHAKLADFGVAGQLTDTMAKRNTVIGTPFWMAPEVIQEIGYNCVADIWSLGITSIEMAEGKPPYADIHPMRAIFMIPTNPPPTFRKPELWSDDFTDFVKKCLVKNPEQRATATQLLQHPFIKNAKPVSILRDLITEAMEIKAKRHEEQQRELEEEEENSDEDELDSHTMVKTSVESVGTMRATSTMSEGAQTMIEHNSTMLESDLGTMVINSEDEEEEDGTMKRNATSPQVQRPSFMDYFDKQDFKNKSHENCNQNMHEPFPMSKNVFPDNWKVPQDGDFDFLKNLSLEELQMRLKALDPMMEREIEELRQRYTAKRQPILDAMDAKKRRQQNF

DYRK1A = target: T7, DYRK1A (Homo sapiens, UniProt Q13627)
T7 construct: purchased Carna Biosciences

KDR = target: T8, KDR (Homo sapiens, UniProt P35968)
T8 construct: purchased Carna Biosciences

RON = target: T9, RON (Homo sapiens, UniProt Q04912)
T9 construct: purchased Carna Biosciences

RSK2 = target: T10, RSK2 (Homo sapiens, UniProt P51812)
T10 construct: purchased Carna Biosciences

SLK = target: T11, SLK (Homo sapiens, UniProt Q9H2G2)
T11 construct: purchased Carna Biosciences

FMS = target: T12, FMS (Homo sapiens, UniProt P07333)
T12 construct: purchased Carna Biosciences

HIPK3 = target: T13, HIPK3 (Homo sapiens, UniProt Q9H422)
T13 construct: purchased Carna Biosciences
T13 sequence (Q9H422 whole entry): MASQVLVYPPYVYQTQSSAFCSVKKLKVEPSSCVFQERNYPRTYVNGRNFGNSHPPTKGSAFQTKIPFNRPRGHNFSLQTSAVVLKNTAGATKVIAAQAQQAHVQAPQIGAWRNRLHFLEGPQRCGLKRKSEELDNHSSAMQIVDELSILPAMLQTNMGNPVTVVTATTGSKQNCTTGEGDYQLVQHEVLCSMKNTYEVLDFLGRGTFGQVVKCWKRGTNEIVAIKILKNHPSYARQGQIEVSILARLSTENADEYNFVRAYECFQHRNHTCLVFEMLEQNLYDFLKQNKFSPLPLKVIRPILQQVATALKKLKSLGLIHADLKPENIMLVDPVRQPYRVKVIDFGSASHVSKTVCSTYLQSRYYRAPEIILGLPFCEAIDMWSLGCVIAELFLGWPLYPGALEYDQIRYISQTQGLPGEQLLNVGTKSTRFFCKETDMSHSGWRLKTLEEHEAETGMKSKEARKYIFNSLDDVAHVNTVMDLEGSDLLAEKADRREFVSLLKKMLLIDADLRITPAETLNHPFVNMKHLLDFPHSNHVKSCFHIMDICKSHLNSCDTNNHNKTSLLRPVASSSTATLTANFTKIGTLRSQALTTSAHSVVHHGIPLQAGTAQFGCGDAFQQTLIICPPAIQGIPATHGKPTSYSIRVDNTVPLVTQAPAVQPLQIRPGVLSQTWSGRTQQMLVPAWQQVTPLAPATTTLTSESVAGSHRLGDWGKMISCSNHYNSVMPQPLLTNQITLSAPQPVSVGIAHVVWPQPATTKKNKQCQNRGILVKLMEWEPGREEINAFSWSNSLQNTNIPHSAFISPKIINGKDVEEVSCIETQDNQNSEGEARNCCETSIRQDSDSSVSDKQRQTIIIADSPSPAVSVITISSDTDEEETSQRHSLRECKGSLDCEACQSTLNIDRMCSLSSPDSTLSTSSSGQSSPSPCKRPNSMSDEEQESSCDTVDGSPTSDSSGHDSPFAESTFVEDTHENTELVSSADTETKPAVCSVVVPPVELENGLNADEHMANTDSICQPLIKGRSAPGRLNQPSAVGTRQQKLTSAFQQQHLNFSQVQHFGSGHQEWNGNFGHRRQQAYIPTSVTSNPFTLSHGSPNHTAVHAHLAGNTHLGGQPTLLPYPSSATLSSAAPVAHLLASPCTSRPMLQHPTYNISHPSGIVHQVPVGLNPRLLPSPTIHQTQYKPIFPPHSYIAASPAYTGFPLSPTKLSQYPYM

RSK1 = target: T14, RSK1 (Homo sapiens, UniProt Q15418)
T14 construct: purchased Carna Biosciences

PDHK2 = target: T15, PDHK2 (Homo sapiens, UniProt Q15119)
T15 construct: purchased Carna Biosciences

CK1γ2 = target: T16, CK1γ2 (Homo sapiens, UniProt P78368)
T16 construct: purchased Carna Biosciences
T16 sequence (P78368 whole entry): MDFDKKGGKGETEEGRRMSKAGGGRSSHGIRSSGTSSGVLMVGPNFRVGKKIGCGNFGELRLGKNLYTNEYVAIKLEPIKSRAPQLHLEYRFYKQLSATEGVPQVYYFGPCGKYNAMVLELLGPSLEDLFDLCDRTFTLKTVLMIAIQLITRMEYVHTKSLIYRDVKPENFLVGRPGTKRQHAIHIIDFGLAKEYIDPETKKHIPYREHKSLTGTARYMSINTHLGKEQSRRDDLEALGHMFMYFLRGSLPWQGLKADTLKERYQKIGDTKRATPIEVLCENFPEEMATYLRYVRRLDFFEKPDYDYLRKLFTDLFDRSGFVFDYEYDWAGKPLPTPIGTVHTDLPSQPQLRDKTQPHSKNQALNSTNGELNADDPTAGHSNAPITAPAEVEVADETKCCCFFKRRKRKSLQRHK

TSSK1 = target: T17, TSSK1 (Homo sapiens, UniProt Q9BXA7)
T17 construct: purchased Carna Biosciences
T17 sequence (Q9BXA7 1-367): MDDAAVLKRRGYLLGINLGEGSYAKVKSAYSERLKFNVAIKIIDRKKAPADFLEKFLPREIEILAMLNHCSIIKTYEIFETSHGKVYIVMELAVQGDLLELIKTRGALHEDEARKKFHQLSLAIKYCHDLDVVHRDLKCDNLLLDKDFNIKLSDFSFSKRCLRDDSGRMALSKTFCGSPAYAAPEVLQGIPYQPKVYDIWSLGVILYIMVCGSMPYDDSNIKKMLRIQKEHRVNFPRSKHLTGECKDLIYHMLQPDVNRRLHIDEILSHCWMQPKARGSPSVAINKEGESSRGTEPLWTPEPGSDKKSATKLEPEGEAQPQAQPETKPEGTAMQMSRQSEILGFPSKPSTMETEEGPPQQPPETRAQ

LOK = target: T18, LOK (Homo sapiens, UniProt O94804)
T18 construct: purchased Carna Biosciences

p38γ = target: T19, p38γ (Homo sapiens, UniProt P53778)
T19 construct: purchased Carna Biosciences
T19 sequence (P53778 1-367): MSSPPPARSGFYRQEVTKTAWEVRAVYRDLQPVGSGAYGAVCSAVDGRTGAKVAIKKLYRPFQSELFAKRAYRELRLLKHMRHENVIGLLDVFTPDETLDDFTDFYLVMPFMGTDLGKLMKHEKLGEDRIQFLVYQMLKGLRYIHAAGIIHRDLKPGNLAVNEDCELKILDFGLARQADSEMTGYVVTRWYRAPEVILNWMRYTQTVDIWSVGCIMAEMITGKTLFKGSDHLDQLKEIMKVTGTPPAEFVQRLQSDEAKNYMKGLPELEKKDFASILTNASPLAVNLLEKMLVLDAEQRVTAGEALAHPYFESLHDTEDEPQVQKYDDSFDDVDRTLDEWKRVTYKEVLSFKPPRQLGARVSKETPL

SYK = target: T20, SYK (Homo sapiens, UniProt P43405)
T20 construct: purchased Carna Biosciences

T2 sequence (Q04759 whole entry): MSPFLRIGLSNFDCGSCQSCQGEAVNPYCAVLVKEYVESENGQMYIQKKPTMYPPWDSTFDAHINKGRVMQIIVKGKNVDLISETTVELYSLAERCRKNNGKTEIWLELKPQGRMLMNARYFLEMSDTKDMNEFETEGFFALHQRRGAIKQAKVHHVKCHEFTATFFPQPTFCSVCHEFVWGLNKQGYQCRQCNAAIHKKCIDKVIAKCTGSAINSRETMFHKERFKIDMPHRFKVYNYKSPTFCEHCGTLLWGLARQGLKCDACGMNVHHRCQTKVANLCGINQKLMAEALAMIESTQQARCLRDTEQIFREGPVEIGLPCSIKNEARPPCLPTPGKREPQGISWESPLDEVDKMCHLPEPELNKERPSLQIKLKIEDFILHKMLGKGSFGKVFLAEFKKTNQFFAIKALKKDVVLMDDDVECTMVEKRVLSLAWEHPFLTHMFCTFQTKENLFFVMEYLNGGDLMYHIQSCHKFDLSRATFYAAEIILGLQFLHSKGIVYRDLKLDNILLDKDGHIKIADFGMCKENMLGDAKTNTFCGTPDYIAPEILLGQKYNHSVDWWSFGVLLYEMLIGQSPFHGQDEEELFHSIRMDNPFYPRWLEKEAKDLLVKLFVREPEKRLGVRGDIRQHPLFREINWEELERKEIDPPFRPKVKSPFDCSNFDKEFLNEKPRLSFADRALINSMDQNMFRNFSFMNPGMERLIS
T1 sequence (Q9NYY3 whole entry): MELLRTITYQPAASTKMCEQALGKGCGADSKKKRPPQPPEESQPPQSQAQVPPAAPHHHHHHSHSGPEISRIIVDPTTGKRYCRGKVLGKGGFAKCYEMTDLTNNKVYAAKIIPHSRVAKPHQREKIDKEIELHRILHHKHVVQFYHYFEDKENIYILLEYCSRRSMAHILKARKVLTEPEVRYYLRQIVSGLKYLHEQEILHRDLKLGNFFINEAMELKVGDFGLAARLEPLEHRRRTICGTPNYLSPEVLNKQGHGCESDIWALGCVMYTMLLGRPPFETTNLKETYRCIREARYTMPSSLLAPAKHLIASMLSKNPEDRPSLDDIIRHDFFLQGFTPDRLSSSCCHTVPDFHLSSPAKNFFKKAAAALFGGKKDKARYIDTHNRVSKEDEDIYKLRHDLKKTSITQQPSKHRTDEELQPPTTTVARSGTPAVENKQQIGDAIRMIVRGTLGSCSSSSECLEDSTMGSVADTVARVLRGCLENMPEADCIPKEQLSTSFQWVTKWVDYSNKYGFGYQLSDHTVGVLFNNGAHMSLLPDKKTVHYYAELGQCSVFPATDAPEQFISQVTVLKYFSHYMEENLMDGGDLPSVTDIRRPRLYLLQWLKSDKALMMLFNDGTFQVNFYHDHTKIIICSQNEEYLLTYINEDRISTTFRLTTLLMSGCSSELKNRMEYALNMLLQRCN

Compound | Percentage inhibition of kinase enzyme activity (PLK2) | Percentage inhibition of kinase enzyme activity (PKCθ) | Percentage inhibition of kinase enzyme activity (CK2α1/β) | Percentage inhibition of kinase enzyme activity (MAPKAPK3) | Percentage inhibition of kinase enzyme activity (LYNa) | Percentage inhibition of kinase enzyme activity (MST2) | Percentage inhibition of kinase enzyme activity (DYRK1A) | Percentage inhibition of kinase enzyme activity (KDR) | Percentage inhibition of kinase enzyme activity (RON) | Percentage inhibition of kinase enzyme activity (RSK2) | Percentage inhibition of kinase enzyme activity (SLK) | Percentage inhibition of kinase enzyme activity (FMS) | Percentage inhibition of kinase enzyme activity (HIPK3) | Percentage inhibition of kinase enzyme activity (RSK1) | Percentage inhibition of kinase enzyme activity (PDHK2) | Percentage inhibition of kinase enzyme activity (CK1γ2) | Percentage inhibition of kinase enzyme activity (TSSK1) | Percentage inhibition of kinase enzyme activity (LOK) | Percentage inhibition of kinase enzyme activity (p38γ) | Percentage inhibition of kinase enzyme activity (SYK)
CC#CC(=O)N1CCC[C@H]1c1nc(-c2ccc(C(=O)Nc3ccccn3)cc2)c2c(N)nccn12 [acalabrutinib] | 2.47% | -8.13% | 5.34% | -11.15% | 1.93% | -3.46% | -4.57% | 6.81% | 7.68% | 0.054% | 1.61% | 7.76% | -12.04% | 3.57% | 0.16% | -7.07% | -7.15% | 3.37% | -1.74% | -19.36%
C=CC(=O)N1CCC[C@@H](n2nc(-c3ccc(Oc4ccccc4)cc3)c3c(N)ncnc32)C1 [ibrutinib] | 1.72% | -1.13% | -11.11% | -6.50% | 98.69% | 16.65% | -3.54% | 83.54% | 6.98% | 7.41% | 12.11% | 18.52% | 1.67% | 5.47% | -1.08% | 1.01% | 9.10% | 24.15% | 3.51% | -19.83%
O=C(c1ccc(Oc2ccccc2)cc1Cl)c1c[nH]c2ncnc(N[C@@H]3CC[C@@H](CO)OC3)c12 [nemtabrutinib] | 3.06% | -0.21% | -2.75% | -15.88% | 100.76% | 86.96% | -2.18% | 80.64% | 33.63% | 7.48% | 52.74% | 101.94% | 5.34% | 17.84% | 4.18% | -5.17% | 5.68% | 83.97% | 0.72% | 3.99%
COc1ccc(F)cc1C(=O)NCc1ccc(-c2nn([C@@H](C)C(F)(F)F)c(N)c2C(N)=O)cc1 [pirtobrutinib] | 2.89% | 4.94% | -1.74% | -18.63% | 46.22% | 6.74% | -2.78% | -1.66% | 6.55% | 2.95% | -0.40% | -8.86% | 3.06% | 5.53% | 0.06% | 1.27% | -0.58% | -1.51% | -2.05% | -13.08%
C=CC(=O)N1CCC([C@@H]2CCNc3c(C(N)=O)c(-c4ccc(Oc5ccccc5)cc4)nn32)CC1 [zanubrutinib] |  |  |  | -12.22% |  |  |  | -4.47% |  |  |  | 82.03% |  |  |  |  |  |  |  | 
